Experimental data as given in paper PMC4583420, “Identification and Validation of a Potent Dual Inhibitor of the P. falciparum M1 and M17 Aminopeptidases Using Virtual Screening” (PLoS ONE, 2015).

Experiments:
[1] = biological target: T1, PfA-M1 (Plasmodium falciparum, UniProt O96935); assay: Dose-response aminopeptidase assay, Ki via Dixon plots, PfA-M1; format: biochemical; settings: Dixon plot; substrate 20 and 40 μM
T1 construct: made in house; host or cells: Escherichia coli
T1 sequence (O96935 1-1085): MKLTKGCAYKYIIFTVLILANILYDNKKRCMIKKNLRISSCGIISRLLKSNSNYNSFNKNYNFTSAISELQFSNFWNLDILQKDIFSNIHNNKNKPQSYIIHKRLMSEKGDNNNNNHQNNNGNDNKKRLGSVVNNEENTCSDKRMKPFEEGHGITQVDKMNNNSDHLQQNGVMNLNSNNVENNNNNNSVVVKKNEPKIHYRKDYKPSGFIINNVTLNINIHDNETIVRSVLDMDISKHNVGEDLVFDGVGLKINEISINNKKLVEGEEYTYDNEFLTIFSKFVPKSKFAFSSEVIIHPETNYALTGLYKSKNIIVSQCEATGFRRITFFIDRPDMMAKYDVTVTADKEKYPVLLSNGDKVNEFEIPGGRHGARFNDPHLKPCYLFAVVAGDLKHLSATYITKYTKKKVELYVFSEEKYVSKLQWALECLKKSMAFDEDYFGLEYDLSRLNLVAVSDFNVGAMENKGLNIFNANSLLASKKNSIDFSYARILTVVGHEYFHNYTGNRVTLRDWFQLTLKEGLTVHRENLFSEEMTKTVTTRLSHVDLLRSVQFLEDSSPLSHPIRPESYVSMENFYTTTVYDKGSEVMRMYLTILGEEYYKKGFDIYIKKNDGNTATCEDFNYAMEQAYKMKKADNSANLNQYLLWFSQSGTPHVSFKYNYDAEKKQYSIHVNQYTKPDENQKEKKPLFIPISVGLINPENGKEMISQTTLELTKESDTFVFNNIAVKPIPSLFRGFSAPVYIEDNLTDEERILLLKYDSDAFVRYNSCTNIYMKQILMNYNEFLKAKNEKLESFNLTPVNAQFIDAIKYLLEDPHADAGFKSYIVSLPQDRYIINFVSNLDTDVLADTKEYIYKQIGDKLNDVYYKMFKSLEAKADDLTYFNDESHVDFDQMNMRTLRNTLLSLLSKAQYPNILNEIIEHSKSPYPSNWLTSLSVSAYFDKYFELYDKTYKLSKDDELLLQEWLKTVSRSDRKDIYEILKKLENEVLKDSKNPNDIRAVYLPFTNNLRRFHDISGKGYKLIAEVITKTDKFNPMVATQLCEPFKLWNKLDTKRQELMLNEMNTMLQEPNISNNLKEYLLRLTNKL
From the text: (§1) The expression and purification of PfA-M1 and PfA-M17 in Escherichia coli employed a two-step purification process of Ni-NTA-agarose column, followed by size exclusion chromatography on a Superdex 200 16/60 using an AKTAxpress high throughput chromatography system (http://proteinexpress.med.monash.edu.au/index.htm), as previously described. Compounds were purchased from Ambinter (France). Purity (90% or higher) of these compounds was confirmed by vendors. Aminopeptidase activity and K i values for both enzymes were determined as already described.
(§2) The top 12 hits identified in the virtual screen were evaluated for their ability to inhibit both PfA-M1 and PfA-M17 in vitro. We initially tested the total aminopeptidase activity (as reported by the fluorigenic substrate L-leucyl-7-amido-4-methylcoumarin) in the presence of 1 mM compound (Fig 3). In this screen, the “no compound” control was considered 100% activity and bestatin was included as an indicator/control for inhibition. From the results obtained, only compounds 4 (ZINC ID: 25108749) and 12 (ZINC ID: 4090432) were able to inhibit the activity of the enzymes to > 50%. […] The two inhibitory compounds were further analyzed to identify their effects on the individual aminopeptidases. To do this, we performed dose-response assays for each inhibitor with each enzyme, and then determined a K i via Dixon plots (Fig 4). […] Compound 4 was a weaker inhibitor of both enzymes with K i’s in the micromolar range (K i = 30.0 μM for PfA-M1 and 0.7 μM for PfA-M17; Fig 4).
(§3) Fig 4 Dixon plots of 1/V (y axis) versus inhibitor concentration (x axis) for PfA-M1 (top panel) and PfA-M17 (bottom panel). For PfA-M1, substrate concentrations were 20 μM (blue) and 40 μM (red); inhibitor concentration in μM. For PfA-M17, substrate concentrations were 5 μM (magenta) and 10 μM (green); inhibitor concentration in μM or nM as indicated. The point of intersection (-K i) is indicated as a dotted line. (A) PfA-M1 and compound 4. (B) PfA-M1 and compound 12. (C) PfA-M17 and compound 4. (D) PfA-M17 and compound 12

[2] = biological target: T2, PfA-M17 (Plasmodium falciparum, UniProt Q8IL11); assay: Dose-response aminopeptidase assay, Ki via Dixon plots, PfA-M17; format: biochemical; settings: Dixon plot; substrate 5 and 10 μM
T2 construct: made in house; host or cells: Escherichia coli
T2 sequence (Q8IL11 84-605 limits assumed): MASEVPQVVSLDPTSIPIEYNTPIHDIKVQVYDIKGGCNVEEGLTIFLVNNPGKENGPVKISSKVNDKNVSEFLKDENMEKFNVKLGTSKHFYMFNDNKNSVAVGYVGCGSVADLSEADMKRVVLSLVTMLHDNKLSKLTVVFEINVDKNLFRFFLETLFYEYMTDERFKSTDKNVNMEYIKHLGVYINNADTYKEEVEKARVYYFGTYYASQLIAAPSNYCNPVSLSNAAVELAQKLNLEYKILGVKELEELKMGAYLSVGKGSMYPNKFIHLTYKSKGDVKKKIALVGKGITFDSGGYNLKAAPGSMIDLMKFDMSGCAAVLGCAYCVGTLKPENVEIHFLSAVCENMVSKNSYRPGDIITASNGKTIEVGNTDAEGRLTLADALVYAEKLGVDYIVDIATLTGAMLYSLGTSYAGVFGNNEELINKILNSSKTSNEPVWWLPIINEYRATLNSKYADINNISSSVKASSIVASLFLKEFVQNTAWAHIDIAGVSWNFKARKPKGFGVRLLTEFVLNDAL
From the text: as §1, §2, §3

[3] = test system: PfA-M1 and PfA-M17 (total aminopeptidase activity); assay: Total aminopeptidase activity in the presence of 1 mM compound (fluorigenic substrate L-leucyl-7-amido-4-methylcoumarin); format: biochemical, Plasmodium falciparum; settings: no compound control = 100% activity
From the text: as §1
The top 12 hits identified in the virtual screen were evaluated for their ability to inhibit both PfA-M1 and PfA-M17 in vitro. We initially tested the total aminopeptidase activity (as reported by the fluorigenic substrate L-leucyl-7-amido-4-methylcoumarin) in the presence of 1 mM compound (Fig 3). In this screen, the “no compound” control was considered 100% activity and bestatin was included as an indicator/control for inhibition. From the results obtained, only compounds 4 (ZINC ID: 25108749) and 12 (ZINC ID: 4090432) were able to inhibit the activity of the enzymes to > 50%. […] The two inhibitory compounds were further analyzed to identify their effects on the individual aminopeptidases. To do this, we performed dose-response assays for each inhibitor with each enzyme, and then determined a K i via Dixon plots (Fig 4). […]

CP(=O)(O)CCCCC(N)C(=O)O (stereo not shown) [Compound 1]
Ki PfA-M1 [1]: n.i.
Ki PfA-M17 [2]: n.i.

NCP(=O)(O)CC(CCCC(=O)O)C(=O)O (stereo not shown) [Compound 3]
Ki PfA-M1 [1]: n.i.
Ki PfA-M17 [2]: n.i.

CC(CP(=O)(O)C(N)c1ccccc1)C(=O)O (stereo not shown) [Compound 4, 3-{[amino(phenyl)methyl](hydroxy)phosphoryl}-methyl propanoic acid]
Ki [1]: 30000 nM
Ki [2]: 700 nM
inhibition of total aminopeptidase activity [3]: 95%

O=C(O)C(Cc1ccco1)P(=O)(O)CN1CCCCC1 (stereo not shown) [Compound 6]
Ki PfA-M1 [1]: n.i.
Ki PfA-M17 [2]: n.i.

CCCN(CCC)CP(=O)(O)CCC(=O)O [Compound 7]
Ki PfA-M1 [1]: n.i.
Ki PfA-M17 [2]: n.i.

O=C(O)CCP(=O)(O)CN1CCCCC1 [Compound 8]
Ki PfA-M1 [1]: n.i.
Ki PfA-M17 [2]: n.i.

O=C(O)C(CC1CCCO1)P(=O)(O)CN1CCCC1=O (stereo not shown) [Compound 9]
Ki PfA-M1 [1]: n.i.
Ki PfA-M17 [2]: n.i.

NC(=O)NC(CC(=O)O)C(=O)O (stereo not shown) [Compound 10]
Ki PfA-M1 [1]: n.i.
Ki PfA-M17 [2]: n.i.

CC(CC(N)C(=O)O)C(=O)O (stereo not shown) [Compound 11]
Ki PfA-M1 [1]: n.i.
Ki PfA-M17 [2]: n.i.

CC(C)CC(CP(=O)(O)C(N)c1ccccc1)C(=O)O (stereo not shown) [Compound 12]
Ki [1]: 2300 nM
Ki [2]: 17 nM
inhibition of total aminopeptidase activity [3]: 98%
